From PubChem BioAssay AID1259407 (Chemical Carcinogenesis Research Information System (CCRIS), 2018)
Activity calls are given as the source filed them. The rule behind the calls is not given here.

System: CCRIS mutagenicity, Ames/micronucleus/aberration tests
Experiment: CCRIS mutagenicity studies
[1] = Test System: AMES SALMONELLA TYPHIMURIUM, Strain/Indicator: TA98, Metabolic Activation: NONE, Method: PREINCUBATION
[2] = Test System: AMES SALMONELLA TYPHIMURIUM, Strain/Indicator: TA98, Metabolic Activation: NONE, Method: STANDARD PLATE
[3] = Test System: AMES SALMONELLA TYPHIMURIUM, Strain/Indicator: TA98, Metabolic Activation: RAT, LIVER, S-9, AROCLOR 1254, Method: PREINCUBATION
[4] = Test System: AMES SALMONELLA TYPHIMURIUM, Strain/Indicator: TA100, Metabolic Activation: NONE, Method: PREINCUBATION

Measured: mutagenic call

Nc1ccc([N+](=O)[O-])cc1O
active: End Point: IN VITRO CHROMOSOMAL ABERRATIONS, Test System: CHO CELLS, Metabolic Activation: NONE active; positive; precipitation occurred at 100.5 and 149.9 ug/ml | End Point: IN VITRO CHROMOSOMAL ABERRATIONS, Test System: CHO CELLS, Metabolic Activation: RAT, LIVER, S-9, AROCLOR 1254 active; positive; precipitation occurred at both doses | Test System: AMES SALMONELLA TYPHIMURIUM, Strain/Indicator: TA98, Metabolic Activation: HAMSTER, LIVER, S-9, AROCLOR 1254 (10%), Method: PREINCUBATION active; positive | Test System: AMES SALMONELLA TYPHIMURIUM, Strain/Indicator: TA98, Metabolic Activation: HAMSTER, LIVER, S-9, AROCLOR 1254, Method: PREINCUBATION active; positive | Test System: AMES SALMONELLA TYPHIMURIUM, Strain/Indicator: TA98, Metabolic Activation: NONE, Method: FLUCTUATION (MICROTITER) active; positive | [1] active; positive | [2] active; positive | Test System: AMES SALMONELLA TYPHIMURIUM, Strain/Indicator: TA98, Metabolic Activation: RAT, LIVER, S-9, AROCLOR 1254 (10%), Method: PREINCUBATION active; positive | [3] active; positive | Test System: AMES SALMONELLA TYPHIMURIUM, Strain/Indicator: TA1537, Metabolic Activation: HAMSTER, LIVER, S-9, AROCLOR 1254 (10%), Method: PREINCUBATION active; positive | Test System: AMES SALMONELLA TYPHIMURIUM, Strain/Indicator: TA1537, Metabolic Activation: HAMSTER, LIVER, S-9, AROCLOR 1254, Method: PREINCUBATION active; positive | Test System: AMES SALMONELLA TYPHIMURIUM, Strain/Indicator: TA1537, Metabolic Activation: NONE, Method: PREINCUBATION active; positive | Test System: AMES SALMONELLA TYPHIMURIUM, Strain/Indicator: TA1537, Metabolic Activation: RAT, LIVER, S-9, AROCLOR 1254 (10%), Method: PREINCUBATION active; positive | Test System: AMES SALMONELLA TYPHIMURIUM, Strain/Indicator: TA1537, Metabolic Activation: RAT, LIVER, S-9, AROCLOR 1254, Method: PREINCUBATION active; positive | Test System: MOUSE LYMPHOMA, Strain/Indicator: L5178Y (TK+/TK-), Metabolic Activation: NONE, Method: SUSPENSION/PLATE active; positive
inactive: Test System: AMES SALMONELLA TYPHIMURIUM, Strain/Indicator: TA98, Metabolic Activation: RAT, LIVER, S-9, AROCLOR 1254, Method: STANDARD PLATE inactive; negative | Test System: AMES SALMONELLA TYPHIMURIUM, Strain/Indicator: TA100, Metabolic Activation: HAMSTER, LIVER, S-9, AROCLOR 1254 (10%), Method: PREINCUBATION inactive; negative | [4] inactive; negative | Test System: AMES SALMONELLA TYPHIMURIUM, Strain/Indicator: TA100, Metabolic Activation: RAT, LIVER, S-9, AROCLOR 1254 (10%), Method: PREINCUBATION inactive; negative | Test System: AMES SALMONELLA TYPHIMURIUM, Strain/Indicator: TA1535, Metabolic Activation: HAMSTER, LIVER, S-9, AROCLOR 1254 (10%), Method: PREINCUBATION inactive; negative | Test System: AMES SALMONELLA TYPHIMURIUM, Strain/Indicator: TA1535, Metabolic Activation: HAMSTER, LIVER, S-9, AROCLOR 1254, Method: PREINCUBATION inactive; negative | Test System: AMES SALMONELLA TYPHIMURIUM, Strain/Indicator: TA1535, Metabolic Activation: NONE, Method: PREINCUBATION inactive; negative | Test System: AMES SALMONELLA TYPHIMURIUM, Strain/Indicator: TA1535, Metabolic Activation: RAT, LIVER, S-9, AROCLOR 1254 (10%), Method: PREINCUBATION inactive; negative | Test System: AMES SALMONELLA TYPHIMURIUM, Strain/Indicator: TA1535, Metabolic Activation: RAT, LIVER, S-9, AROCLOR 1254, Method: PREINCUBATION inactive; negative | Test System: AMES SALMONELLA TYPHIMURIUM, Strain/Indicator: TA1537, Metabolic Activation: NONE, Method: FLUCTUATION (MICROTITER) inactive; negative | Test System: AMES SALMONELLA TYPHIMURIUM, Strain/Indicator: TA7001, Metabolic Activation: NONE, Method: FLUCTUATION (MICROTITER) inactive; negative | Test System: AMES SALMONELLA TYPHIMURIUM, Strain/Indicator: TA7002, Metabolic Activation: NONE, Method: FLUCTUATION (MICROTITER) inactive; negative | Test System: AMES SALMONELLA TYPHIMURIUM, Strain/Indicator: TA7003, Metabolic Activation: NONE, Method: FLUCTUATION (MICROTITER) inactive; negative | Test System: AMES SALMONELLA TYPHIMURIUM, Strain/Indicator: TA7004, Metabolic Activation: NONE, Method: FLUCTUATION (MICROTITER) inactive; negative | Test System: AMES SALMONELLA TYPHIMURIUM, Strain/Indicator: TA7005, Metabolic Activation: NONE, Method: FLUCTUATION (MICROTITER) inactive; negative | Test System: AMES SALMONELLA TYPHIMURIUM, Strain/Indicator: TA7006, Metabolic Activation: NONE, Method: FLUCTUATION (MICROTITER) inactive; negative

CC(=O)OC1Cc2ccc3ccc4cccc5cc1c2c3c45 (stereo not drawn)
active: [2] active; positive | Test System: AMES SALMONELLA TYPHIMURIUM, Strain/Indicator: TA100, Metabolic Activation: NONE, Method: STANDARD PLATE active; positive

Nc1ccc(-c2ccc([N+](=O)[O-])cc2N)c([N+](=O)[O-])c1
active: [1] active; positive | Test System: AMES SALMONELLA TYPHIMURIUM, Strain/Indicator: TA98, Metabolic Activation: RAT, LIVER, S-9, KANECHLOR 500, Method: PREINCUBATION active; positive

CC1(C)CC(C(=O)NC(CO)C(O)CO)C(C)(C)N1O (stereo not drawn)
inactive: Test System: CHO, Strain/Indicator: CHO/6-THIOGUANINE, Metabolic Activation: NONE, Method: STANDARD PLATE inactive; negative | Test System: CHO, Strain/Indicator: CHO/6-THIOGUANINE, Metabolic Activation: RAT, LIVER, S-9, AROCLOR 1254, Method: STANDARD PLATE inactive; negative | Test System: CHO, Strain/Indicator: CHO/OUABAIN, Metabolic Activation: NONE, Method: STANDARD PLATE inactive; negative | Test System: CHO, Strain/Indicator: CHO/OUABAIN, Metabolic Activation: RAT, LIVER, S-9, AROCLOR 1254, Method: STANDARD PLATE inactive; negative

Cc1cc2c(c3ccc4ccccc4c13)[C@H]1O[C@H]1[C@@H](O)[C@@H]2O
inactive: [4] inactive; negative

CCSC(=O)N1CCCCCC1
inactive: Test System: AMES SALMONELLA TYPHIMURIUM, Strain/Indicator: TA98, Metabolic Activation: NONE inactive; negative | Test System: AMES SALMONELLA TYPHIMURIUM, Strain/Indicator: TA98, Metabolic Activation: RAT, LIVER, S-9, AROCLOR 1254 inactive; negative | Test System: AMES SALMONELLA TYPHIMURIUM, Strain/Indicator: TA100, Metabolic Activation: NONE inactive; negative | Test System: AMES SALMONELLA TYPHIMURIUM, Strain/Indicator: TA100, Metabolic Activation: RAT, LIVER, S-9, AROCLOR 1254 inactive; negative | Test System: AMES SALMONELLA TYPHIMURIUM, Strain/Indicator: TA102, Metabolic Activation: NONE inactive; negative | Test System: AMES SALMONELLA TYPHIMURIUM, Strain/Indicator: TA102, Metabolic Activation: RAT, LIVER, S-9, AROCLOR 1254 inactive; negative | Test System: AMES SALMONELLA TYPHIMURIUM, Strain/Indicator: TA1535, Metabolic Activation: NONE inactive; negative | Test System: AMES SALMONELLA TYPHIMURIUM, Strain/Indicator: TA1535, Metabolic Activation: RAT, LIVER, S-9, AROCLOR 1254 inactive; negative | Test System: AMES SALMONELLA TYPHIMURIUM, Strain/Indicator: TA1537, Metabolic Activation: NONE inactive; negative | Test System: AMES SALMONELLA TYPHIMURIUM, Strain/Indicator: TA1537, Metabolic Activation: RAT, LIVER, S-9, AROCLOR 1254 inactive; negative

O=[N+]([O-])c1ccccc1SSC(Cl)=C(Cl)Cl
active: Test System: AMES SALMONELLA TYPHIMURIUM, Strain/Indicator: TA100(DNP6), Metabolic Activation: NONE, Method: PREINCUBATION active; positive | Test System: AMES SALMONELLA TYPHIMURIUM, Strain/Indicator: TA100(NR), Metabolic Activation: NONE, Method: PREINCUBATION active; positive

Cc1cnc(C)c(C)n1
inactive: [1] inactive; negative | [3] inactive; negative | [4] inactive; negative | Test System: AMES SALMONELLA TYPHIMURIUM, Strain/Indicator: TA100, Metabolic Activation: RAT, LIVER, S-9, AROCLOR 1254, Method: PREINCUBATION inactive; negative | Test System: AMES SALMONELLA TYPHIMURIUM, Strain/Indicator: TA102, Metabolic Activation: NONE, Method: PREINCUBATION inactive; negative | Test System: AMES SALMONELLA TYPHIMURIUM, Strain/Indicator: TA102, Metabolic Activation: RAT, LIVER, S-9, AROCLOR 1254, Method: PREINCUBATION inactive; negative
